{"source": "patent US10918687B2", "about": "“Kava derived therapeutic compounds and methods of use thereof” (KUALITY HERBCEUTICS LLC, priority 2013, dated 2021)", "key": {"[1]": {"system": "NNK-induced DNA adducts in lung tissues", "assay": "NNK-induced DNA adducts in A/J mouse lung tissues (LC-ESI-MS/MS)", "type": "in vivo, A/J mice", "conditions": "24 h after NNK; for minimum chemopreventive (effective) dose estimated from DNA adduct reduction: dose-response of O^6-mG reduction in lung", "source_text": "DNA was isolated from the whole lung tissue of each individual mouse following Puregene DNA isolation protocol (Qiagen Corp, Valencia, Calif.) (Urban et al., Chem Res Toxicol 2012; 25:2167-78). 7-pobG, O^2-pobdT, O^6-pobdG, and O^6-mG were quantified by LC-ESI-MS/MS, following established protocols (Urban et al., Chem Res Toxicol 2012; 25:2167-78; Peterson et al., Cancer Res 1991; 51:5557-64).\nAfter one-week acclimation, A/J mice were weighed and randomized into seven groups (3 mice per group) and switched to the AIN-93 G diet on a date defined as Day 1. Mice in Groups 1 and 2 were given the AIN-93 G diet during Day 1-Day 7. Mice in Groups 3-7 were given the AIN-93 G diet supplemented with desmethoxyyangonin, (+)-DHK, (+)-kavain, (+)-DHM, or (+)-methysticin respectively, at a dose of 1 mg/g of diet during Day 1-Day 7. Mice in Groups 2-7 were given a single dose of NNK at 100 mg/kg bodyweight in saline (0.1 ml) via intraperitoneal (i.p.) injection at the beginning of Day 7 while mice in Group 1 were given saline (0.1 ml). Mice were euthanized by CO2 overdosing 24 h after NNK treatment, and lung tissues were collected and stored at −80° C. until DNA isolation. A number of NNK-induced DNA modifications (O^6-mG, 7-pobG, O^6-pobdG and O^2-pobdT) were quantified by following a reported procedure (Leitzman, P et al. (2014) Cancer. Prev. Res., 7: 86-96).\nAfter one-week acclimation, A/J mice were weighed and randomized into ten groups (3 mice per group except for Group 1 that had one mouse as the negative control) and switched to the AIN-93 G diet on a date defined as Day 1. Mice in Groups 1 and 2 were given the AIN-93 G diet during Day 1-Day 7. Mice in Groups 3-10 were given the AIN-93 G diets supplemented with kava, (+)-DHK, (+)-DHM, and synthetic (±)-DHM respectively at the specified dose during Day 1-Day 7. Mice in Groups 2-10 were given a single dose of NNK at 100 mg/kg bodyweight in saline (0.1 ml) via i.p. injection at the beginning of Day 7 while the mouse in Group 1 was given saline (0.1 ml). Mice were euthanized by CO2 overdosing 24 h after NNK treatment, and lung and liver tissues were collected and stored at −80° C. until DNA isolation. A set of NNK-induced DNA adducts (O^6-mG, 7-mG, 7-pobG, O^6-pobdG, O^2-pobdT, 7-phbG, O^6-phbdG and O^2-phbdT) were quantified by following reported procedures (Leitzman, P et al. (2014) Cancer. Prev. Res., 7: 86-96; Peterson, L A et al. (2013) Chem. Res. Toxicol. 26: 1464-1473; Upadhyaya, P et al. (2008) Chem. Res. Toxicol. 21: 1468-1476). For 7-mG isolation, DNA (30 μg) was dissolved in 10 mM sodium phosphate buffer, pH 7 (500 μL) and spiked with [^13C1^2H3]7-mG (10 pmol). Samples were heated to 80° C. for 30 minutes. An aliquot (100 μL) was removed for 7-mG analysis."}, "[2]": {"assay": "A/J mouse safety upon 17-week continuous exposure of (+)-DHM", "type": "in vivo, A/J mice", "conditions": "for adverse effects: 0.5 mg/g of diet (at least 10x minimum effective dose)", "protocol": "After one-week acclimation, A/J mice were weighed and randomized into two groups (five mice in the control group and ten mice in (+)-DHM treatment group). Mice in the control group were maintained on the AIN-93 G diet for three weeks and then switched to the AIN-93 M diet until the end of Week 17. Mice in (+)-DHM treatment group were maintained on the same diet as the control group with supplementation of (+)-DHM at a dose of 0.5 mg/g of diet. Food was replenished twice weekly. Food intake was monitored twice a week and mouse bodyweight was monitored once a week. At the end of Week 8, serum samples from each mouse were prepared from blood collected via a facial vein and analyzed for a panel of clinical chemistry analytes. At the end of Week 17, mice were euthanized by CO2 overdosing. Blood was collected with one portion analyzed for hematology and the other portion processed for serum and analyzed for a full panel of clinical chemistry analytes. Individual animal body weights and major organ weights (lung, liver, heart, spleen and kidney) were recorded. Lung, liver, heart, spleen, kidney and pancreas were fixed in 10% neutral-buffered formalin solution."}, "[3]": {"conditions": "1, 0.25, 0.1 and 0.01 mg/g of diet"}, "[4]": {"conditions": "kava 5 and 1.25 mg/g, (+)-DHM 1, 0.25, 0.1 and 0.01 mg/g of diet"}, "[5]": {"conditions": "0.5 mg/g of diet, Week 17, data not shown"}}, "data": [{"smiles": "COC1=CC(=O)O[C@@H](CCc2ccc3c(c2)OCO3)C1", "note": "[(+)-DHM, (+)-dihydromethysticin]", "values": [{"measurement": "effect on O^6-mG", "setting": "[1]; 0.01 mg/g of diet", "result": "no effect"}, {"measurement": "extent of reduction in O^6-mG", "setting": "[1]; 0.1 mg/g of diet", "result": "comparable to that induced by kava at a dose of 1.25 mg/g of diet"}, {"measurement": "effect on 7-mG", "setting": "[1]; [3]", "result": "dose-dependently reduced"}, {"measurement": "effect on PHB adducts (7-phbG, O^6-phbdG, O^2-phbdT)", "setting": "[1]; [3]", "result": "dose-dependently reduced"}, {"measurement": "minimum chemopreventive (effective) dose estimated from DNA adduct reduction", "setting": "[1]", "result": "0.01-0.1 mg/g of diet"}, {"measurement": "effect on NNK-induced O^6-mG", "setting": "[1]; isolated kavalactones 1 mg/g of diet Day 1-Day 7", "result": "significantly reduced"}, {"measurement": "effect on O^6-mG, dose-response", "setting": "[1]; [4]", "result": "preferentially and dose-dependently reduced"}, {"measurement": "effect on POB adducts, dose-response", "setting": "[1]; [4]", "result": "weaker effects"}, {"measurement": "adverse effects", "setting": "[2]; 17 weeks", "result": "did not present with any adverse effects"}, {"measurement": "food intake vs control", "setting": "[2]; 0.5 mg/g of diet, 17 weeks", "result": "similar"}, {"measurement": "weekly bodyweight vs control", "setting": "[2]; 0.5 mg/g of diet, 17 weeks", "result": "none of the differences were statistically significant"}, {"measurement": "full-panel hematology vs control", "setting": "[2]; 0.5 mg/g of diet, Week 17", "result": "None of these parameters were significantly different"}, {"measurement": "histopathological examination of liver, lung, heart, kidney, spleen and pancreas vs control", "setting": "[2]; [5]", "result": "no significant differences"}, {"measurement": "serum osmolality and anion gap vs control", "setting": "[2]; [5]", "result": "no differences"}, {"measurement": "final bodyweight and relative weights of five organs vs control", "setting": "[2]; 0.5 mg/g of diet, Week 17, except for the lung tissues", "result": "not significantly different"}, {"measurement": "relative lung weight vs control", "setting": "[2]; 0.5 mg/g of diet, Week 17, excluding one control mouse with lung hemorrhage (p=0.10)", "result": "no significant differences"}, {"measurement": "serum clinical chemistry (ALP, ALT, AST, BUN, albumin, total bilirubin, CK, glucose, cholesterol, amylase) vs control", "setting": "[2]; 0.5 mg/g of diet, end of Week 8", "result": "No significant differences"}, {"measurement": "serum clinical chemistry vs control", "setting": "[2]; 0.5 mg/g of diet, end of Week 17", "result": "no significant differences"}]}, {"smiles": "COC1=CC(=O)O[C@@H](CCc2ccc3c(c2)OCO3)C1", "note": "[DHM, dihydromethysticin]", "values": [{"measurement": "minimum chemopreventive (effective) dose estimated from DNA adduct reduction", "setting": "[1]", "result": "0.01-0.1 mg/g of diet"}, {"measurement": "adverse effects", "setting": "[2]; 17 weeks", "result": "no adverse effects"}]}]}
